From patent US20200317642A1, “AMINE-SUBSTITUTED HETEROCYCLIC COMPOUNDS AS EHMT2 INHIBITORS AND DERIVATIVES THEREOF” (Epizyme, Inc., priority 2017, published 2020) come the findings set out here.

In one experiment the target is T1, human EHMT2 913-1193 (Homo sapiens, UniProt Q96KQ7).
T1 construct: recombinant purified human EHMT2 913-1193, Viva; purchased Viva
T1 sequence (Q96KQ7 913-1193): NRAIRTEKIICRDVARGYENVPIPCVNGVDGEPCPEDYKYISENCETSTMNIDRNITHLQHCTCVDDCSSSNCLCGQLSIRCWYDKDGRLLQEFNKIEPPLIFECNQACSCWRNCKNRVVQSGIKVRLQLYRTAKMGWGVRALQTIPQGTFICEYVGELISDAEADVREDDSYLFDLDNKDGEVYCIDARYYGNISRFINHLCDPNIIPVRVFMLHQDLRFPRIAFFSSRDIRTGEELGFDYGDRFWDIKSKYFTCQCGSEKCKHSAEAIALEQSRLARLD
The experiment can be described thus: EHMT2 enzyme assay on histone peptide substrate. The class given is biochemical. To be noted: Table 3A; histone H3 1-15 peptide, balanced conditions; read-out: EHMT2 (IC50 μM). In outline: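 Human EHMT2 913-1193 (0.031 nM) was preincubated 30 min with compound (10-point 3-fold series, top 50 μM final, 2% DMSO) in Bicine pH 7.5 buffer. Reaction ran 60 min at room temperature with ³H-SAM and biotinylated H3 1-15 peptide, both at Km. Methylated peptide was captured on streptavidin Flashplates; 1 mM SAH defined 100% inhibition.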

For the next experiment, the target named is T2, EHMT1 (Homo sapiens, UniProt Q9H9B1).
T2 sequence (Q9H9B1 1-1298): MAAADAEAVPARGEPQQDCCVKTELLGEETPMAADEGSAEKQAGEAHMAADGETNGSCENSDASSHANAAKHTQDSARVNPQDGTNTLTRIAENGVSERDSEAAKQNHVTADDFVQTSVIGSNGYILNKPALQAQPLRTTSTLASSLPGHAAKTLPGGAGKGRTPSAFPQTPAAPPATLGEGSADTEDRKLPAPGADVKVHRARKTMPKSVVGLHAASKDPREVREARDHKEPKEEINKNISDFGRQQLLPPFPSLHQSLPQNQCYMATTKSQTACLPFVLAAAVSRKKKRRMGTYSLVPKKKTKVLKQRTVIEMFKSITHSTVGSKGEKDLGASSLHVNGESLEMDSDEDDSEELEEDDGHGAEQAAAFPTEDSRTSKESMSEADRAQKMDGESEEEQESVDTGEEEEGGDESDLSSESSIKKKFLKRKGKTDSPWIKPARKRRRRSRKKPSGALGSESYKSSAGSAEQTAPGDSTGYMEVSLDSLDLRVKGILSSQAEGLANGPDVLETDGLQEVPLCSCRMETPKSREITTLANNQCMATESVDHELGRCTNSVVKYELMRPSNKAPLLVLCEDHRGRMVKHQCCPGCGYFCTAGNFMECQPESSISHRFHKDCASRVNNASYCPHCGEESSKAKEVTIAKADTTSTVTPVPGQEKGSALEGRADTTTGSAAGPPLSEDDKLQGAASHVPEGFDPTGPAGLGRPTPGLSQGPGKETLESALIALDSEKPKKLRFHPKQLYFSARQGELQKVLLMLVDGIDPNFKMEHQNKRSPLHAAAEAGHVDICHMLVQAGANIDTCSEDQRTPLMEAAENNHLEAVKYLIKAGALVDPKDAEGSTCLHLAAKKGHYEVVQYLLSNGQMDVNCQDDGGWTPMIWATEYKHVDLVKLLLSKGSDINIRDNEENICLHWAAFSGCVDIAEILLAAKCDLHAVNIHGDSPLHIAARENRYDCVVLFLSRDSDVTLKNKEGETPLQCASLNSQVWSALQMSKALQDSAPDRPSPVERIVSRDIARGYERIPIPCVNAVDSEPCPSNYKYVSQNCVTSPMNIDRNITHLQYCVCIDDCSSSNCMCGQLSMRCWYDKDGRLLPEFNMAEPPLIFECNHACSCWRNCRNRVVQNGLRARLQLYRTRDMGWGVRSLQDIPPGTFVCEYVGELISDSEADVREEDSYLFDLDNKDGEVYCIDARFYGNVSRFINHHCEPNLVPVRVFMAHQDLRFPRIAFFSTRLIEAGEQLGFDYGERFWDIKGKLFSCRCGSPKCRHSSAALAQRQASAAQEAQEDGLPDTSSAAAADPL
As to the kind of experiment: EHMT1 PEP enzyme assay. In kind it is biochemical. To be noted: Table 3A; read-out: EHMT1 (IC50 μM).

Turning to `CNc1cc(C)nc(Nc2ccc(OC)c(-n3cc4c(n3)CCNC4)c2F)n1` [Compound A19, N2-(2-fluoro-4-methoxy-3-(4,5,6,7-tetrahydro-2H-pyrazolo[4,3-c]pyridin-2-yl)phenyl)-N4,6-dimethylpyrimidine-2,4-diamine], the IC50 at human EHMT2 913-1193 and at EHMT1 was 0.1 to 1 µM each time.

Regarding `CNCc1cn(-c2c(OC)cc3c(c2F)N=C(NC)C32CCC2)nn1` [Compound A21], the IC50 at human EHMT2 913-1193 and on EHMT1 was 0.01 to 0.1 µM in each case.

With `CNCc1cn(-c2c(OC)cc3c(c2F)N=C(N)C32CCC2)nn1` [Compound A22], the IC50 on human EHMT2 913-1193 and on EHMT1 was 0.01 to 0.1 µM throughout.
